In patent publication US11179368B2, “Substituted indoline derivatives as dengue viral replication inhibitors” (JANSSEN PHARMACEUTICALS, INC., priority 2017, dated 2021):

How the values were obtained:
DENV-2 16681 strain = test: DENV-2 antiviral assay (eGFP-labeled virus in Vero cells); type: cell-based, Dengue virus; settings: for EC50: DENV-2 16681 eGFP, Vero cells, MOI 0.5, 3 days; for SI: SI=CC50/EC50, DENV-2 antiviral assay
in vitro = settings: African green monkey
[1] = Dengue virus, DENV2, Vero, 72 h

Structure (SMILES) | EC50 (DENV-2 16681 strain; [1]) [nM] | SI (DENV-2 16681 strain) | CC50 (in vitro) [nM] | EC50 (DENV-2 16681 strain) [nM]
COc1cc(NC(C(=O)N2CCc3ccc(C(F)(F)F)cc32)c2ccc(F)cc2OCCO)cc(S(C)(=O)=O)c1 (racemic) [Compound 1, 2-(4-fluoro-2-(2-hydroxyethoxy)phenyl)-2-((3-methoxy-5-(methylsulfonyl)phenyl)amino)-1-(6-(trifluoromethyl)indolin-1-yl)ethan-1-one] | 3.2 | 4397 | 14000 | 
COc1cc(NC(C(=O)N2CCc3cc(OC)c(C(F)(F)F)cc32)c2ccc(F)cc2OCCO)cc(S(C)(=O)=O)c1 (racemic) [Compound 2, 2-(4-fluoro-2-(2-hydroxyethoxy)phenyl)-2-((3-methoxy-5-(methylsulfonyl)phenyl)amino)-1-(5-methoxy-6-(trifluoromethyl)indolin-1-yl)ethanone] | 1 | 13700 | 12000 | 
COc1cc(NC(C(=O)N2CCc3ccc(OC(F)(F)F)cc32)c2ccc(F)cc2OCCO)cc(S(C)(=O)=O)c1 (racemic) [Compound 3, 2-(4-fluoro-2-(2-hydroxyethoxy)phenyl)-2-((3-methoxy-5-(methylsulfonyl)phenyl)amino)-1-(6-(trifluoromethoxy)indolin-1-yl)ethanone] | 0.74 | 10700 | 7900 | 
COc1cc(NC(C(=O)N2CCc3ccc(C(F)(F)F)cc32)c2ccc(Cl)cc2OCCO)cc(S(C)(=O)=O)c1 (racemic) [Compound 4, 2-(4-chloro-2-(2-hydroxyethoxy)phenyl)-2-((3-methoxy-5-(methylsulfonyl)phenyl)amino)-1-(6-(trifluoromethyl)indolin-1-yl)ethanone] | 0.66 | 11600 | 7700 | 
COc1cc(NC(C(=O)N2CCc3cc(OC)c(C(F)(F)F)cc32)c2ccc(Cl)cc2OCCO)cc(S(C)(=O)=O)c1 (racemic) [Compound 5, 2-(4-chloro-2-(2-hydroxyethoxy)phenyl)-2-((3-methoxy-5-(methylsulfonyl)phenyl)amino)-1-(5-methoxy-6-(trifluoromethyl)indolin-1-yl)ethanone] | 0.7 | 15700 | 11000 | 
COc1cc(NC(C(=O)N2CCc3ccc(OC(F)(F)F)cc32)c2ccc(Cl)cc2OCCO)cc(S(C)(=O)=O)c1 (racemic) [Compound 6, 2-(4-chloro-2-(2-hydroxyethoxy)phenyl)-2-((3-methoxy-5-(methylsulfonyl)phenyl)amino)-1-(6-(trifluoromethoxy)indolin-1-yl)ethanone] | 0.43 | 7070 | 3600 | 
COc1cc(NC(C(=O)N2CCc3ccc(C(F)(F)F)cc32)c2ccc(Cl)cc2OCCCC(=O)O)cc(S(C)(=O)=O)c1 (racemic) [Compound 7, 4-(5-chloro-2-(1-((3-methoxy-5-(methylsulfonyl)phenyl)amino)-2-oxo-2-(6-(trifluoromethyl)indolin-1-yl)ethyl)phenoxy)butanoic acid] | 0.58 | 21800 | 13000 | 
COc1cc(NC(C(=O)N2CCc3cc(OC)c(C(F)(F)F)cc32)c2ccc(Cl)cc2OCCCC(=O)O)cc(S(C)(=O)=O)c1 (racemic) [Compound 8, 4-(5-chloro-2-(1-((3-methoxy-5-(methylsulfonyl)phenyl)amino)-2-(5-methoxy-6-(trifluoromethyl)indolin-1-yl)-2-oxoethyl)phenoxy)butanoic acid] | 1.9 | 7460 | 14000 | 
COc1cc(NC(C(=O)N2CCc3ccc(OC(F)(F)F)cc32)c2ccc(Cl)cc2OCCCC(=O)O)cc(S(C)(=O)=O)c1 (racemic) [Compound 9, 4-(5-chloro-2-(1-((3-methoxy-5-(methylsulfonyl)phenyl)amino)-2-oxo-2-(6-(trifluoromethoxy)indolin-1-yl)ethyl)phenoxy)butanoic acid] | 0.31 | 40200 | 12000 | 
COc1cc(NC(C(=O)N2CCc3ccc(OC(F)(F)F)cc32)c2ccc(F)cc2OCCO)cc(S(C)(=O)=O)c1 (single isomer, unassigned) [Compound 3A] |  | 19 | 11000 | 570
COc1cc(NC(C(=O)N2CCc3cc(OC)c(C(F)(F)F)cc32)c2ccc(Cl)cc2OCCO)cc(S(C)(=O)=O)c1 (single isomer, unassigned) [Compound 5A] |  | 210 | 16000 | 76
COc1cc(NC(C(=O)N2CCc3ccc(C(F)(F)F)cc32)c2ccc(Cl)cc2OCCCC(=O)O)cc(S(C)(=O)=O)c1 (single isomer, unassigned) [Compound 7A] |  | 165 | 11000 | 69
COc1cc(NC(C(=O)N2CCc3cc(OC)c(C(F)(F)F)cc32)c2ccc(Cl)cc2OCCCC(=O)O)cc(S(C)(=O)=O)c1 (single isomer, unassigned) [Compound 8A] |  | 126 | 12000 | 95
COc1cc(NC(C(=O)N2CCc3ccc(OC(F)(F)F)cc32)c2ccc(Cl)cc2OCCCC(=O)O)cc(S(C)(=O)=O)c1 (single isomer, unassigned) [Compound 9A] |  | 93 | 12000 | 120
